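Grown in 96-well plates, cells were treated for 48 hours with each compound at five concentrations. Insufficient inhibition: endpoint recorded as highest concentration tested. TGI marks complete inhibition of growth.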
Columns and labels:
Assay in all cases: NCI tumour cell line growth inhibition, 48 h
786-0 renal = test system: 786-0 renal
A498 renal = test system: A498 renal
A549 NSCLC = test system: A549 NSCLC
ACHN renal = test system: ACHN renal
CAKI-1 renal = test system: CAKI-1 renal
CCRF-CEM leukemia = test system: CCRF-CEM leukemia
COLO 205 colon = test system: COLO 205 colon
DLD-1 colon = test system: DLD-1 colon
DMS 114 small cell lung = test system: DMS 114 small cell lung
DMS 273 small cell lung = test system: DMS 273 small cell lung
EKVX NSCLC = test system: EKVX NSCLC
HCC-2998 colon = test system: HCC-2998 colon
HCT-116 colon = test system: HCT-116 colon
HCT-15 colon = test system: HCT-15 colon
HL-60(TB) leukemia = test system: HL-60(TB) leukemia
HOP-18 NSCLC = test system: HOP-18 NSCLC
HOP-62 NSCLC = test system: HOP-62 NSCLC
HT29 colon = test system: HT29 colon
IGROV1 ovarian = test system: IGROV1 ovarian
K-562 leukemia = test system: K-562 leukemia
KM12 colon = test system: KM12 colon
KM20L2 colon = test system: KM20L2 colon
LOX IMVI melanoma = test system: LOX IMVI melanoma
M14 melanoma = test system: M14 melanoma
M19-MEL melanoma = test system: M19-MEL melanoma
MALME-3M melanoma = test system: MALME-3M melanoma
MOLT-4 leukemia = test system: MOLT-4 leukemia
NCI-H226 lung = test system: NCI-H226 lung
NCI-H23 lung = test system: NCI-H23 lung
NCI-H460 lung = test system: NCI-H460 lung
NCI-H522 lung = test system: NCI-H522 lung
OVCAR-3 ovarian = test system: OVCAR-3 ovarian
OVCAR-4 ovarian = test system: OVCAR-4 ovarian
OVCAR-5 ovarian = test system: OVCAR-5 ovarian
OVCAR-8 ovarian = test system: OVCAR-8 ovarian
RPMI-8226 leukemia = test system: RPMI-8226 leukemia
RXF 393 renal = test system: RXF 393 renal
SF-268 CNS = test system: SF-268 CNS
SF-295 CNS = test system: SF-295 CNS
SF-539 CNS = test system: SF-539 CNS
SK-MEL-2 melanoma = test system: SK-MEL-2 melanoma
SK-MEL-28 melanoma = test system: SK-MEL-28 melanoma
SK-MEL-5 melanoma = test system: SK-MEL-5 melanoma
SK-OV-3 ovarian = test system: SK-OV-3 ovarian
SN12C renal = test system: SN12C renal
SNB-19 CNS = test system: SNB-19 CNS
SNB-75 CNS = test system: SNB-75 CNS
SNB-78 CNS = test system: SNB-78 CNS
SR leukemia = test system: SR leukemia
SW-620 colon = test system: SW-620 colon
TK-10 renal = test system: TK-10 renal
U251 CNS = test system: U251 CNS
UACC-257 melanoma = test system: UACC-257 melanoma
UACC-62 melanoma = test system: UACC-62 melanoma
UO-31 renal = test system: UO-31 renal
XF 498 CNS = test system: XF 498 CNS
HOP-92 NSCLC = test system: HOP-92 NSCLC
LXFL 529 NSCLC = test system: LXFL 529 NSCLC

Measured: TGI

S=P(N1CCCC1)(N1CC1)N1CC1
not listed: HOP-92 NSCLC | LXFL 529 NSCLC
> 100 µM: all other assays above

CC1(O)CCC2(C)C(=O)C1(C)CCC21OCCO1 (centres undefined)
not listed: A498 renal | CAKI-1 renal | HCT-116 colon | HOP-62 NSCLC | KM20L2 colon | LOX IMVI melanoma | OVCAR-4 ovarian | SNB-75 CNS | SNB-78 CNS | UACC-62 melanoma
> 100 µM: all other assays above

Source: PubChem BioAssay (NCI)
